Experiments:
Assay type in all cases: in vivo
[1] = Roundtable assessment of off taste (scale 0 to 6); design: key to Off taste / off taste score: 0 = none; 1 = trace/faint; 2 = slight; 3 = moderate; 4 = definite; 5 = strong; 6 = extreme
Description: For other sweetness attributes, the solutions were tested by a panel of at least four individuals that are highly-trained in tasting steviol glycoside solutions. The highly-trained panelists used a roundtable methodology to assess each sweetness attribute. To test each solution, the highly-trained panelists dispensed approximately 2 mL of each solution into their own mouths by transfer pipet, dispersed the solution by moving their tongues, and recorded a value for the particular sweetness attribute being tested. Between tasting solutions, the panelists were able to cleanse their palates with water. For each sweetness attribute, the panelist agreed on a descriptive scale with relative intensities assigned for each sweetness attribute and then recorded the values for each sweetness attribute against this. For example, this roundtable assessment of sweetness linger assigned a scale of 0 to 6 with a score of 0 indicating no sweetness linger and a score of 6 indicating extreme sweetness linger. Roundtable assessment of sweetness linger assigned a scale of 0 to 6 with a score of 0 indicating no sweetness linger and a score of 6 indicating extreme sweetness linger (0=none, 1=trace, 2=slight, 3=moderate, 4=definite, 5=strong, 6=extreme). Roundtable assessment of rounded assigned a scale of 0 to 3 with a score of 0 indicating spikey and a score of 3 indicating desirable rounded (0=none, 1=mostly spikey, some rounded, 2=mostly rounded, some spikey, 3=rounded). Roundtable assessment of mouthfeel assigned a scale of 0 to 2 with a score of 0 indicating water and a score of 2 indicating syrupy (0=water, 1=sucrosey, 2=syrupy). Roundtable assessment of bitterness assigned a scale of 0 to 6 with a score of 0 indicating no bitterness and a score of 6 indicating extreme sweetness linger (0=none, 1=trace, 2=slight, 3=moderate, 4=definite, 5=strong, 6=extreme). Roundtable assessment of off tastes assigned a scale of 0 to 6 with a score of 0 indicating no bitterness and a score of 6 indicating extreme off tastes (0=none, 1=trace, 2=slight, 3=moderate, 4=definite, 5=strong, 6=extreme).
A series of assays were carried out to characterize off taste (0=none, 1=trace/faint, 2=slight, 3=moderate, 4=definite, 5=strong, 6=extreme) of steviol glycoside compositions with sensory modifier compound using the roundtable methodology described in Example 1. […] Solutions of steviol glycosides and sensory modifier compound were prepared at increasing ratios of sensory modifier to steviol glycoside by weight. The steviol glycosides were RebA (4 glycoside groups), RebD (5 glycoside groups), RebM (6 glycoside groups), and OPS1-5(7 glycoside groups) and the sensory modifier compound was monocaffeoylquinic and dicaffeoylquinic acids prepared from yerba mate. The concentration of steviol glycosides was 700 ppm in each solution. The solutions were tested for off taste. Off taste included astringency, metallic, powdery, numbing, and vapory attributes.

[2] = Sweetness intensity (SEV) by trained panel against 1%-14% sucrose standards
Description: In some aspects, the amount of sensory modifier compound effective to increase sweetness intensity can be determined by panel testing with trained panelists. For example, […] can be determined by the following test: Solutions were prepared by dissolving steviol glycosides and sensory modifier compounds into reverse osmosis water at the indicated concentrations and/or ratios. Solutions were tested by a panel of at least four individuals that are highly-trained in tasting steviol glycoside solutions. The highly-trained panelists were trained against a standard range of 1%, 2%, 3%, 4%, 5%, 6%, 7%, 8%, 9%, 10%, 11%, 12%, 13%, and 14% sucrose solutions corresponding to 1, 2, 3, 4, 5, 6, 7, 8, 9, 10, 11, 12, 13, and 14 SEV. To test each solution, the highly-trained panelists dispensed approximately 2 mL of each solution into their own mouths by transfer pipet, dispersed the solution by moving their tongues, and recorded an SEV value for each solution based on comparison to the 1%, 2%, 3%, 4%, 5%, 6%, 7%, 8%, 9%, 10%, 11%, 12%, 13%, and 14% sucrose solutions. Between tasting solutions, the panelists were able to cleanse their palates with water. […] For sweetness intensity, the panelists focused on, and only recorded, the sweetness intensity in SEV that they tasted while disregarding other attributes of the solution. At the highest concentrations of steviol glycoside and sensory modifier compound, the panelists found other attributes to be highly noticeable, but recorded the isolated sweetness intensity for each solution despite these other attributes. Exemplary tests are described below in Example 1.
All solutions were prepared by dissolving steviol glycosides and sensory modifier compounds into reverse osmosis water at the indicated concentrations and/or ratios.
For sweetness intensity, the solutions were tested by a panel of at least four individuals that are highly-trained in tasting steviol glycoside solutions. The highly-trained panelists were trained against a standard range of 1%, 2%, 3%, 4%, 5%, 6%, 7%, 8%, 9%, 10%, 11%, 12%, 13%, and 14% sucrose solutions corresponding to 1, 2, 3, 4, 5, 6, 7, 8, 9, 10, 11, 12, 13, and 14 SEV. To test each solution, the highly-trained panelists dispensed approximately 2 mL of each solution into their own mouths by transfer pipet, dispersed the solution by moving their tongues, and recorded an SEV value for each solution based on comparison to the 1%, 2%, 3%, 4%, 5%, 6%, 7%, 8%, 9%, 10%, 11%, 12%, 13%, and 14% sucrose solutions. Between tasting solutions, the panelists were able to cleanse their palates with water. […] For this example, the panelists focused on and only recorded the sweetness intensity in SEV that they tasted while disregarding other attributes of the solution. At the highest concentrations of steviol glycoside and sensory modifier compound, the panelists found other attributes to be highly noticeable, but recorded the isolated sweetness intensity for each solution despite these other attributes.

[3] = Roundtable assessment of astringency; design: key: 0 = none; 1 = trace/faint; 2 = slight; 3 = moderate; 4 = definite; 5 = strong; 6 = extreme
Description: Roundtable assessment of botanical notes assigned a scale of 0 to 5 with a score of 0 indicating no botanical notes and a score of 5 indicating strong (0=none, 1=trace, 2=slight, 3=moderate, 4=definite, 5=strong).
Solutions of steviol glycosides and sensory modifier compound were prepared at increasing ratios of sensory modifier to steviol glycoside by weight. […] The concentration of steviol glycosides was 700 ppm in each solution. The solutions were tested for astringency.

[4] = steviol glycoside 700 ppm + yerba mate mono/dicaffeoylquinic acids 630 ppm
[5] = steviol glycoside 700 ppm + yerba mate mono/dicaffeoylquinic acids 946 ppm
[6] = steviol glycoside 700 ppm + yerba mate mono/dicaffeoylquinic acids […]
[7] = steviol glycoside 700 ppm, sensory modifier 0 ppm
[8] = steviol glycoside 700 ppm + yerba mate mono/dicaffeoylquinic acids 270 ppm
[9] = steviol glycoside 700 ppm + yerba mate mono/dicaffeoylquinic acids 540 ppm
[10] = steviol glycoside 700 ppm + yerba mate mono/dicaffeoylquinic acids 810 ppm

Row | SMILES | off taste score ([1]; RebA 700 ppm, higher concentrations of sensory modifier) | Off taste [1, 4] | Off taste [1, 5] | Off taste [1, 6] | Off taste [1, 7] | SEV [2, 4] | SEV [2, 5] | SEV [2, 6] | SEV [2, 7] | Astringency [3, 4] | Astringency [3, 5] | Astringency [3, 6] | Astringency [3, 7] | Off taste [1, 8] | SEV [2, 8] | SEV [2, 9] | SEV [2, 10] | Astringency [3, 8] | Astringency [3, 9] | Astringency [3, 10]
1 | C=C1C[C@@]23CC[C@H]4[C@@](C)(CCC[C@@]4(C)C(=O)O[C@@H]4O[C@H](CO)[C@@H](O)[C@H](O)[C@H]4O)[C@@H]2CC[C@]1(O[C@@H]1O[C@H](CO)[C@@H](O)[C@H](O[C@@H]2O[C@H](CO)[C@@H](O)[C@H](O)[C@H]2O)[C@H]1O[C@@H]1O[C@H](CO)[C@@H](O)[C@H](O)[C@H]1O)C3 [RebA, Rebaudioside A] | 2 | 2 | 2 | 2 | 6 | 7 | 7 | 7 | 7 | 1 | 3 | Not observed | Not observed |  |  |  |  |  |  | 
2 | C=C1C[C@@]23CC[C@H]4[C@@](C)(CCC[C@@]4(C)C(=O)O[C@@H]4O[C@H](CO)[C@@H](O)[C@H](O)[C@H]4O[C@@H]4O[C@H](CO)[C@@H](O)[C@H](O)[C@H]4O)[C@@H]2CC[C@]1(O[C@@H]1O[C@H](CO)[C@@H](O)[C@H](O[C@@H]2O[C@H](CO)[C@@H](O)[C@H](O)[C@H]2O)[C@H]1O[C@@H]1O[C@H](CO)[C@@H](O)[C@H](O)[C@H]1O)C3 [RebD, Rebaudioside D] |  |  |  |  | 2 |  |  |  | 8 |  |  |  | Not observed | 2 | 8.5 | 8.5 | 8.5 | 2 | 1 | 2
